Design in all cases: dose 25 mg/kg
In data set [1] the test system is Plasma. Kind of data set: Metabolic stability in Wistar rat plasma assessed as alpha-lapachone level at 25 mg/kg after 12 hrs. The data set is classed as ADME, organism-based. The settings on record: in vivo.
In data set [2] the test system is Plasma. Nature of the data set: Metabolic stability in Wistar rat plasma assessed as dehydro-alpha-lapachone level at 25 mg/kg after 1.5 hrs. The data set is classed as ADME, organism-based. The settings on record: in vivo.
For data set [3], the system named is Plasma. Kind of data set: Metabolic stability in Wistar rat plasma assessed as alpha-lapachone level at 25 mg/kg after 1.5 hrs. The data set is classed as ADME, organism-based. The following applies: in vivo.
The subject of data set [4] is Plasma. Nature of the data set: Metabolic stability in Wistar rat plasma assessed as alpha-lapachone level at 25 mg/kg after 3 hrs. In kind it is ADME, organism-based. The settings on record: in vivo.
A short description of data set [5]: Plasma concentration in Wistar rat at 25 mg/kg after 12 hrs. In kind it is ADME, organism-based.
Data set [6] in a line: Plasma concentration in Wistar rat at 25 mg/kg after 1.5 hrs. The data set is classed as ADME, organism-based.
A further data set has as its system Rattus norvegicus. Kind of data set: Toxicity in Wistar rat at 25 mg/kg. The data set is classed as organism-based. The following applies: in vivo.

SMILES strings stand for the structures.

Turning to `CC(C)=CCC1=C(O)C(=O)c2ccccc2C1=O` [LAPACHOL], the Drug metabolism in the data set with Plasma [1] came to 0.7 µg/mL; in the data set with Plasma [2], 0.6 µg/mL; in the data set on Plasma [3] it was 1.4 µg/mL; in the data set on Plasma [4] it was 6 µg/mL. Further, in data set [5], the concentration at 12 h was determined as 2000 ng/mL. This compound displayed a concentration at 1.5 h in data set [6] of 37000 ng/mL. Besides, the Activity result with Rattus norvegicus was “Non-toxic”.
